The assay concerns the target LXRβ (Homo sapiens (Human), UniProt P55055). Nature of the assay: In vitro assay LXRβ: PathHunter NHR CHO cells, LXRβ / Steroid Receptor Co-activator Peptide enzyme fragment complementation. Type of assay: cell-based. Conditions: PathHunter NHR CHO cells, full-length human LXRβ and SRCP, chemiluminescent signal; read-out: LXRβ PPI. Here is the method:
PathHunter NHR CHO cells stably transfected with tagged full-length human LXRβ and a nuclear fusion protein containing Steroid Receptor Co-activator Peptide (SRCP). The full-length human LXRβ was tagged with the ProLink™ component of the DiscoverX Enzyme Fragment Complementation (EFC) system and the SRCP domain is fused to the enzyme acceptor component (EA) expressed in the nucleus. Cells were seeded in a total volume of 20 μL into white walled, 384-well microplates and incubated at 37° C. overnight prior to testing. Assay media contained charcoal-dextran filtered serum to reduce the level of hormones present. Final assay vehicle concentration was 1%. […] Microplates were read following signal generation with a PerkinElmer Envision instrument for chemiluminescent signal detection.

The source of these data is patent publication US20230340011A1 (Asteroid Therapeutics, priority 2022, published 2023).

Bounds are passed on as bounds.

Chain of LXRβ (P55055 whole entry, the tested form may be a part): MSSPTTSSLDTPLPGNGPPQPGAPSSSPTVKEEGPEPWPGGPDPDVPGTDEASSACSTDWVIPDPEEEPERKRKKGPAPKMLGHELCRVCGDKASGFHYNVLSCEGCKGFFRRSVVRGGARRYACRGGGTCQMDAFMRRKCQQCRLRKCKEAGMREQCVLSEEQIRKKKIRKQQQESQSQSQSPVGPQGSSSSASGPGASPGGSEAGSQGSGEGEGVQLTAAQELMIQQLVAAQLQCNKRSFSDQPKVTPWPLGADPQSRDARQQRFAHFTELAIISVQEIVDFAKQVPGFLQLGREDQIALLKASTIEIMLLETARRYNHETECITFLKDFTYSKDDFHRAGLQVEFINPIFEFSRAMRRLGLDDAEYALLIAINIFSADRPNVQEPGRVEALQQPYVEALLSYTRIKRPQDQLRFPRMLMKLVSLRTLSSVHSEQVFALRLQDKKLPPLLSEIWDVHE

`CNC(=O)C(=O)O[C@@H](C)[C@H]1CC[C@H]2[C@@H]3CC=C4C[C@@H](O)CC[C@]4(C)[C@H]3CC[C@]12C` [Example 145, (S)-1-((3S,8S,9S,10R,13S,14S,17S)-3-hydroxy-10,13-dimethyl-2,3,4,7,8,9,10,11,12,13,14,15,16,17-tetradecahydro-1H-cyclopenta[a]phenanthren-17-yl)ethyl 2-(methylamino)-2-oxoacetate]: the EC50 was greater than 10 µM.

Consider `C[C@H](CCc1ccnnc1)[C@H]1CC[C@H]2[C@@H]3CC=C4C[C@@H](O)CC[C@]4(C)[C@H]3CC[C@]12C` [Example 170, (1R,3aS,3bS,7S,9aR,9bS,11aR)-9a,11a-dimethyl-1-[(2R)-4-(pyridazin-4-yl)butan-2-yl]-1H,2H,3H,3aH,3bH,4H,6H,7H,8H,9H,9aH,9bH,10H,11H,11aH-cyclopenta[a]phenanthren-7-ol], for which the EC50 is greater than 10 µM.

Turning to `C[C@H](CCC(=O)N1CCN(c2cnn(C)c2)CC1)[C@H]1CC[C@H]2[C@@H]3CC=C4C[C@@H](O)CC[C@]4(C)[C@H]3CC[C@]12C` [Example 214, (R)-4-((3S,8S,9S,10R,13R,14S,17R)-3-hydroxy-10,13-dimethyl-2,3,4,7,8,9,10,11,12,13,14,15,16,17-tetradecahydro-1H-cyclopenta[a]phenanthren-17-yl)-1-(4-(1-methyl-1H-pyrazol-4-yl)piperazin-1-yl)pentan-1-one], the EC50 was greater than 10 µM.

On to `C[C@H](CCC(=O)N1CC[C@H](Oc2ccncn2)C1)[C@H]1CC[C@H]2[C@@H]3CC=C4C[C@@H](O)CC[C@]4(C)[C@H]3CC[C@]12C` [Example 216, (4R)-4-[(1R,3aS,3bS,7S,9aR,9bS,11aR)-7-hydroxy-9a,11a-dimethyl-1H,2H,3H,3aH,3bH,4H,6H,7H,8H,9H,9aH,9bH,10H,11H,11aH-cyclopenta[a]phenanthren-1-yl]-1-[(3S)-3-(pyrimidin-4-yloxy)pyrrolidin-1-yl]pentan-1-one], for which the EC50 was greater than 10 µM.

With `C[C@H](CCC(=O)N1CCC[C@@H](Oc2ccncn2)C1)[C@H]1CC[C@H]2[C@@H]3CC=C4C[C@@H](O)CC[C@]4(C)[C@H]3CC[C@]12C` [Example 217, (4R)-4-[(1R,3aS,3bS,7S,9aR,9bS,11aR)-7-hydroxy-9a,11a-dimethyl-1H,2H,3H,3aH,3bH,4H,6H,7H,8H,9H,9aH,9bH,10H,11H,11aH-cyclopenta[a]phenanthren-1-yl]-1-[(3R)-3-(pyrimidin-4-yloxy)piperidin-1-yl]pentan-1-one], the EC50 was greater than 10 µM.

With `C[C@H](CCC(=O)N1CCC[C@H](Oc2ccncn2)C1)[C@H]1CC[C@H]2[C@@H]3CC=C4C[C@@H](O)CC[C@]4(C)[C@H]3CC[C@]12C` [Example 218, (R)-4-((3S,8S,9S,10R,13R,14S,17R)-3-hydroxy-10,13-dimethyl-2,3,4,7,8,9,10,11,12,13,14,15,16,17-tetradecahydro-1H-cyclopenta[a]phenanthren-17-yl)-1-((S)-3-(pyrimidin-4-yloxy)piperidin-1-yl)pentan-1-one], the EC50 was in the range of 0.25 to 1 µM.

`C[C@H](CCC(=O)N1CCC(Oc2cccnc2)CC1)[C@H]1CC[C@H]2[C@@H]3CC=C4C[C@@H](O)CC[C@]4(C)[C@H]3CC[C@]12C` [Example 219, (R)-4-((3S,8S,9S,10R,13R,14S,17R)-3-hydroxy-10,13-dimethyl-2,3,4,7,8,9,10,11,12,13,14,15,16,17-tetradecahydro-1H-cyclopenta[a]phenanthren-17-yl)-1-(4-(pyridin-3-yloxy)piperidin-1-yl)pentan-1-one]: the EC50 is greater than 10 µM.

Consider `C[C@H](CCC(=O)N1CCC(Oc2cnccn2)CC1)[C@H]1CC[C@H]2[C@@H]3CC=C4C[C@@H](O)CC[C@]4(C)[C@H]3CC[C@]12C` [Example 220, (R)-4-((3S,8S,9S,10R,13R,14S,17R)-3-hydroxy-10,13-dimethyl-2,3,4,7,8,9,10,11,12,13,14,15,16,17-tetradecahydro-1H-cyclopenta[a]phenanthren-17-yl)-1-(4-(pyrazin-2-yloxy)piperidin-1-yl)pentan-1-one], for which the EC50 lay in the range of 1 to 10 µM.
